Measurements reported in paper PMC9871744 (Cellular and Molecular Gastroenterology and Hepatology, 2022).
Several values for one entry are separate records, joined by “and”; a condition that tells them apart may be missing. Identical values can stand only once.

How the values were obtained:
[1] = test system: female Wistar rats; assay: Toxicity / median lethal dose test, OECD guidelines 425; type: in vivo
[2] = test system: HepG2 cells; assay: Micronucleus analysis
[3] = test system: mouse fungiform TBC; assay: Ca2+ signaling in mouse fungiform TBC; type: cell-based; details: LA at 20 μmol/L
[4] = Cytotoxicity evaluation; details: human, Cytotoxicity (%); for cytotoxicity at 0.05 mmol/L: 0.050 mmol/L; for cytotoxicity at 0.1 mmol/L: 0.100 mmol/L
[5] = test system: HepG2 cells; assay: Cytotoxicity evaluation
[6] = test system: MDA-kb2 cells; assay: Cytotoxicity in the androgen receptor reporter cells; type: cell-based
[7] = test system: S typhimurium tester strains TA98, TA100, TA1535, and TA1537 and E coli tester strain WP2uvrA(pKM101); details: all doses with and without S9
[8] = test system: C57Bl/6 male mice; assay: Two-bottle preference and licking tests; type: in vivo; details: 50 μmol/L in 0.3% xanthan gum, 12 hours
[9] = test system: human fungiform TBC; assay: Ca2+ signaling in human fungiform TBC; type: cell-based
[10] = Pharmacokinetics and detection in blood by LC-MS; type: in vivo, mice
[11] = biological target: T1, human estrogen receptor alpha (hERα) (Homo sapiens, UniProt P03372); assay: Estrogen receptor transcriptional activation and inhibition assays; type: cell-based
T1 sequence (P03372 1-595): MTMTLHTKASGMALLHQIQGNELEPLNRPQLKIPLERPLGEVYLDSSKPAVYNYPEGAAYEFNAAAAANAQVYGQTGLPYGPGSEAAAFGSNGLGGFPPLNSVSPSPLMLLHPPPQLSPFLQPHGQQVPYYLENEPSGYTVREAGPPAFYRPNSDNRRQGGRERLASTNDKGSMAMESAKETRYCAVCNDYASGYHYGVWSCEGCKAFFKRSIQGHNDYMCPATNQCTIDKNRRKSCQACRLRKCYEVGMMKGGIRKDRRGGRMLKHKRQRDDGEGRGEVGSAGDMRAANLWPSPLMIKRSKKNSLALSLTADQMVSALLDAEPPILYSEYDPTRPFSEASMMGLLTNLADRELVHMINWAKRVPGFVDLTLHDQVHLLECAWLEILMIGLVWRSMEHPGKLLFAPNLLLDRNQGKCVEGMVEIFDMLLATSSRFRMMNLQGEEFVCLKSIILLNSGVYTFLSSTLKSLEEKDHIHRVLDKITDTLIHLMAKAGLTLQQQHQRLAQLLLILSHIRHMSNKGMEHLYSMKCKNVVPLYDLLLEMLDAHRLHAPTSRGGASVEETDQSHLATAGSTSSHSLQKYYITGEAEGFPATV

[12] = rats, single oral 2000 mg/kg, means ± SEM (n = 5)
[13] = extended treatment in the absence of S9 mix, 0.0065 mmol/L
[14] = extended treatment in the absence of S9 mix, 0.010 mmol/L
[15] = extended treatment in the absence of S9 mix, 0.020 mmol/L
[16] = extended treatment in the absence of S9 mix, 2.5 mmol/L (Table 14)
[17] = extended treatment in the absence of S9 mix, 5 mmol/L (Table 14)
[18] = extended treatment in the absence of S9 mix, 10 mmol/L (Table 14)
[19] = short treatment in the absence of S9 mix, 0.025 mmol/L
[20] = short treatment in the absence of S9 mix, 0.05 mmol/L
[21] = short treatment in the absence of S9 mix, 0.10 mmol/L
[22] = short treatment in the presence of S9 mix, 0.025 mmol/L
[23] = short treatment in the presence of S9 mix, 0.05 mmol/L
[24] = short treatment in the presence of S9 mix, 0.10 mmol/L
[25] = extended treatment in the absence of S9 mix, 0.030 mmol/L
[26] = extended treatment in the absence of S9 mix, 0.040 mmol/L
[27] = short treatment in absence of S9 mix
[28] = short treatment in the presence of S9 mix
[29] = short treatment in absence of S9 mix, 0.025 mmol/L
[30] = short treatment in absence of S9 mix, 0.050 mmol/L
[31] = short treatment in absence of S9 mix, 0.100 mmol/L
[32] = short treatment in absence of S9 mix, 0.25 mmol/L
[33] = short treatment in the presence of S9 mix, 0.050 mmol/L
[34] = short treatment in the presence of S9 mix, 0.100 mmol/L
[35] = short treatment in the presence of S9 mix, 0.25 mmol/L
[36] = bicompartmental model (Monolix), mice i.v.

## CCCCC/C=C\C/C=C\CCCCCCCCP(=O)(OCC)OCC [NKS-3, diethyl (9Z,12Z)-octadeca-9,12-dien-1-ylphosphonate]
[1]; [12]
  weight of kidneys: 1.82 ± 0.193 g
  weight of liver: 8.12 ± 0.188 g
  weight of spleen: 0.96 ± 0.12 g
[1]; rats, single oral limit dose 2000 mg/kg body weight, 2 weeks
  toxic effect on liver enzymes and blood lipid parameters: No toxic effect
[1]; single animal, oral dosages of 5000 mg/kg body weight
  evidence of toxicity, preliminary study: no evidence of toxicity
[2]; [13]
  MNBN cells frequency (%): 0.8% and 0.6%
  Mean frequency (%) of MNBN cells: 0.70%
[2]; [14]
  MNBN cells frequency (%): 0.9% and 0.8%
  Mean frequency (%) of MNBN cells: 0.85%
[2]; [15]
  MNBN cells frequency (%): 0.9% and 0.6%
  Mean frequency (%) of MNBN cells: 0.75%
[2]; [16]
  MNBN cells frequency (%): 0.9% and 0.7%
  Mean frequency (%) of MNBN cells: 0.80%
[2]; [17]
  MNBN cells frequency (%): 0.9% and 0.8%
  Mean frequency (%) of MNBN cells: 0.85%
[2]; [18]
  MNBN cells frequency (%): 1.0% and 0.9%
  Mean frequency (%) of MNBN cells: 0.95%
[2]; [19]
  MNBN cells frequency (%): 0.6% and 0.5%
  Mean frequency (%) of MNBN cells: 0.55%
[2]; [20]
  MNBN cells frequency (%): 0.7%
  Mean frequency (%) of MNBN cells: 0.70%
[2]; [21]
  MNBN cells frequency (%): 0.7% and 0.6%
  Mean frequency (%) of MNBN cells: 0.65%
[2]; [22]
  MNBN cells frequency (%): 0.7%
  Mean frequency (%) of MNBN cells: 0.70%
[2]; [23]
  MNBN cells frequency (%): 0.6% and 0.8%
  Mean frequency (%) of MNBN cells: 0.70%
[2]; [24]
  MNBN cells frequency (%): 0.6% and 0.4%
  Mean frequency (%) of MNBN cells: 0.50%
[3]
  Ca2+ signaling compared with a dietary long-chain fatty acid: higher
[4]; [13]
  cytotoxicity at 0.0065 mmol/L: 24.9%
[4]; [14]
  cytotoxicity at 0.01 mmol/L: 35.3%
[4]; [15]
  cytotoxicity at 0.02 mmol/L: 49.5%
[4]; [25]
  cytotoxicity at 0.03 mmol/L: 72.8%
[4]; [26]
  cytotoxicity at 0.04 mmol/L: 73.7%
[4]; [27]
  cytotoxicity at 0.025 mmol/L: -9.99%
  cytotoxicity at 0.05 mmol/L: 14.7%
  cytotoxicity at 0.1 mmol/L: 56.2%
  cytotoxicity at 0.25 mmol/L: 65.5%
[4]; [28]
  cytotoxicity at 0.025 mmol/L: -3.6%
  cytotoxicity at 0.05 mmol/L: -5.03%
  cytotoxicity at 0.1 mmol/L: 19.4%
  cytotoxicity at 0.25 mmol/L: 73%
[5]; extended treatment in the absence of S9 mix
  concentrations with evidence of toxicity: ≥ 30 µM
[5]; [13]
  CBPI: 1.64 and 1.74
  Mean CBPI: 1.69
[5]; [14]
  CBPI: 1.57 and 1.62
  Mean CBPI: 1.59
[5]; [15]
  CBPI: 1.47 and 1.46
  Mean CBPI: 1.46
[5]; [25]
  CBPI: 1.25
  Mean CBPI: 1.25
[5]; [26]
  CBPI: 1.24
  Mean CBPI: 1.24
[5]; extended treatment in the absence of S9 mix, 0.062 mmol/L
  Cytotoxicity (%): Cell death
[5]; extended treatment in the absence of S9 mix, 0.125 mmol/L
  Cytotoxicity (%): Cell death
[5]; [29]
  CBPI: 1.83 and 1.84
  Mean CBPI: 1.84
[5]; [30]
  CBPI: 1.64 and 1.66
  Mean CBPI: 1.65
[5]; [31]
  CBPI: 1.28 and 1.38
  Mean CBPI: 1.33
[5]; [32]
  CBPI: 1.28
  Mean CBPI: 1.26
[5]; short treatment in absence of S9 mix, 0.40 mmol/L
  Cytotoxicity (%): Cell death
[5]; short treatment in absence of S9 mix, 0.50 mmol/L
  Cytotoxicity (%): Cell death
[5]; short treatment in absence of S9 mix, 1.00 mmol/L
  Cytotoxicity (%): Cell death
[5]; short treatment in absence of S9 mix, 5.00 mmol/L
  Cytotoxicity (%): Cell death
[5]; short treatment in absence of S9 mix, 10.00 mmol/L
  Cytotoxicity (%): Cell death
[5]; short treatment in the absence of S9 mix
  concentrations with evidence of toxicity: ≥ 250 µM
[5]; [28]
  concentrations with evidence of toxicity: ≥ 250 µM
[5]; [22]
  CBPI: 1.83 and 1.84
  Mean CBPI: 1.83
[5]; [33]
  CBPI: 1.86 and 1.82
  Mean CBPI: 1.84
[5]; [34]
  CBPI: 1.63 and 1.66
  Mean CBPI: 1.65
[5]; [35]
  CBPI: 1.20 and 1.23
  Mean CBPI: 1.22
[5]; short treatment in the presence of S9 mix, 0.40 mmol/L
  Cytotoxicity (%): Cell death
[5]; short treatment in the presence of S9 mix, 0.50 mmol/L
  Cytotoxicity (%): Cell death
[5]; short treatment in the presence of S9 mix, 1.00 mmol/L
  Cytotoxicity (%): Cell death
[5]; short treatment in the presence of S9 mix, 5.00 mmol/L
  Cytotoxicity (%): Cell death
[5]; short treatment in the presence of S9 mix, 10.00 mmol/L
  Cytotoxicity (%): Cell death
[6]; MDA-kb2 cells
  cytotoxic concentrations: ≥ 10 µmol/L
[6]; androgen receptor assays
  highest non-cytotoxic concentration: 5 µmol/L
[7]
  toxicity in the tester strains: No toxicity
[8]
  preference in 2-bottle paradigm versus control solution: significant preference
[9]
  Ca2+ signaling compared with a dietary long-chain fatty acid: higher
[9]; NKS-3 50 μmol/L, NKS-5 25 μmol/L
  increase in intracellular free Ca2+ concentrations, [Ca2+]i: induced a rapid increase
[10]; [36]
  Intercompartmental clearance, population pharmacokinetic estimation mean: 0.739 L/h
  Proportional residual error, population pharmacokinetic model: 1.89%
  Volume of central compartment, population pharmacokinetic estimation mean: 0.0634 L
  Volume of peripheral compartment, population pharmacokinetic estimation mean: 2.24 L
[10]; mice
  detection in blood circulation after intravenous injections (LC-MS): could be detected
[10]; mice, intravenous 10 mg/kg
  AUClast as share of the total exposure: about 80%
[10]; mice, intravenous 10 mg/kg body weight, NCA (AUC0–6 h), 10 mg/kg
  AUClast: 59.94 ± 12.09 mg/kg/Lxh
[10]; mouse, plasma, iv, 10 mg/kg
  Tmax: 5 min
  Vd: 1.23 ± 0.279 L/kg
  clearance: 2.82 mL/min/kg and 3.37 mL/min
  half-life: 4 h
[10]; mouse, plasma, iv, 10 mg/kg, AUClast, mice, intravenous 10 mg/kg body weight, NCA (AUC0–6 h)
  AUC(0-t): ~60000 ng·h/mL
[10]; mouse, plasma, iv, 10 mg/kg, mice, dose of 10 mg/kg body weight
  Cmax: ~48000 ng/mL
[10]; mouse, plasma, iv, 10 mg/kg, mice, intravenous 10 mg/kg body weight, NCA, means ± SEM, five mice
  Cmax: 46700 ± 15300 ng/mL
[11]
  estrogenic or antiestrogenic potential (conclusion): did not exert an estrogenic or antiestrogenic potential
